Experimental data published in PubChem BioAssay (NCI).
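Values below derive from 48-hour exposures of cells grown in 96-well plates, with endpoints linearly interpolated between the two concentrations bracketing the appropriate inhibition level. Here, GI50 denotes the concentration required for 50% inhibition of growth. TGI is the concentration that stops growth completely.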

Tests used:
Assay in all cases: growth of human tumour cells (NCI), 48 h
[1] = tested on: NCI-H23 lung
[2] = tested on: NCI-H460 lung
[3] = tested on: NCI-H522 lung
[4] = tested on: NCI/ADR-RES ovarian
[5] = tested on: OVCAR-3 ovarian
[6] = tested on: OVCAR-4 ovarian
[7] = tested on: OVCAR-5 ovarian
[8] = tested on: OVCAR-8 ovarian
[9] = tested on: PC-3 prostate
[10] = tested on: RPMI-8226 leukemia
[11] = tested on: RXF 393 renal
[12] = tested on: SF-268 CNS
[13] = tested on: SF-295 CNS
[14] = tested on: SF-539 CNS
[15] = tested on: SK-MEL-2 melanoma
[16] = tested on: SK-MEL-28 melanoma
[17] = tested on: SK-MEL-5 melanoma
[18] = tested on: SK-OV-3 ovarian
[19] = tested on: SN12C renal
[20] = tested on: SNB-19 CNS
[21] = tested on: SNB-75 CNS
[22] = tested on: SR leukemia
[23] = tested on: SW-620 colon
[24] = tested on: T-47D breast
[25] = tested on: TK-10 renal
[26] = tested on: UACC-257 melanoma
[27] = tested on: UACC-62 melanoma
[28] = tested on: UO-31 renal

SMILES: Cc1nn(CN2CCN(C)CC2)c(=S)n1/N=C/c1cccc2ccccc12
- TGI [1]: 56.2 µM
- GI50 [2]: 20.3 µM
- TGI [2]: 41.6 µM
- GI50 [3]: 19 µM
- TGI [3]: 39.8 µM
- GI50 [4]: 19.3 µM
- TGI [4]: 36.3 µM
- GI50 [5]: 18 µM
- TGI [5]: 36 µM
- GI50 [6]: 2.11 µM
- TGI [6]: 19.4 µM
- GI50 [7]: 19.6 µM
- TGI [7]: 40.4 µM
- GI50 [8]: 19.1 µM
- TGI [8]: 37 µM
- GI50 [9]: 22.1 µM
- TGI [9]: 64 µM
- GI50 [10]: 17.4 µM
- TGI [10]: 39.9 µM
- GI50 [11]: 18.2 µM
- TGI [11]: 34.1 µM
- GI50 [12]: 24.5 µM
- TGI [12]: 68.2 µM
- GI50 [13]: 24.9 µM
- TGI [13]: 59.5 µM
- GI50 [14]: 18.3 µM
- TGI [14]: 34.7 µM
- GI50 [15]: 20.1 µM
- TGI [15]: 39 µM
- GI50 [16]: 17 µM
- TGI [16]: 34.3 µM
- GI50 [17]: 16.9 µM
- TGI [17]: 32.1 µM
- GI50 [18]: 16 µM
- TGI [18]: 42.3 µM
- GI50 [19]: 24.4 µM
- TGI [19]: 39.2 µM
- GI50 [20]: 20.3 µM
- TGI [20]: 51.6 µM
- GI50 [21]: 11.1 µM
- TGI [21]: 38.1 µM
- GI50 [22]: 19 µM
- TGI [22]: 38.5 µM
- GI50 [23]: 31.4 µM
- TGI [23]: > 100 µM
- GI50 [24]: 17.6 µM
- TGI [24]: 48.2 µM
- GI50 [25]: 20.5 µM
- TGI [25]: 50.1 µM
- GI50 [26]: 22.2 µM
- TGI [26]: 44.6 µM
- GI50 [27]: 17.5 µM
- TGI [27]: 33.9 µM
- GI50 [28]: 22 µM
- TGI [28]: 54.4 µM
